Measurements as given in patent US8017124B2, “Use of DMBT1 for capturing sulphate and phosphate group exposing agents” (priority 2004, dated 2011).
Read-outs that look alike come from different tables or passages of the source.

How the values were obtained:
DMBT1pbs1 = biological target: T1, DMBT1pbs1 (Homo sapiens, UniProt Q9UGM3); format: binding; parameters: key: +++: no difference in aggregation compared to reference; ++: moderate inhibition of aggregation over the entire time course or maximal aggregation delayed by 1-5-min compared to reference; +: strong inhibition of aggregation over the entire time course or maximal aggregation delayed by 5-10 min compared to reference; −: complete inhibition of aggregation after 10 min; settings: pH co
T1 construct: purchased Eurogentec, Belgium
Method: Streptococcus mutans (Ingbritt), Streptococcus gordonii (HG 222 and DSM20568), Escherichia coli (F7 and OM36-1), and Helicobacter pylori (ATCC 43504) were gown and processed as described earlier. Salmonella typhimurium (strain SF1399: wild type; strain SF1195: Rc chemotype; strain SF1567: Rd1 chemotype; strain SF1398: Re chemotype) were kindly provided by Dr. Ben Appelmelk from the Free University of Amsterdam, The Netherlands, and were grown and processed as previously described for E. coli. The bacteria were diluted in the buffers depicted previously to a final OD700 of 0.5 or 1.0 corresponding to about 0.5 and 1.0×10^9 cells/ml respectively.
For quantitative measurements of bacterial aggregation, we added 200 μl peptide stock solution (1 mg/ml in 10% DMSO) diluted with 300 μl TBS containing 0.1% v/v Tween 20 and 1 mM CaCl2 (TBS-TC) to 500 μl of the respective bacterial suspensions to obtain final peptide concentrations of […]. As controls, we used bacterial suspensions, to which 200 μl 10% (v/v %) DMSO in H2O and 300 μl TBS-TC were added. Bacterial aggregation was monitored by measuring the optical density at 700 nm in intervals of 1 min for 1 h in a spectrophotometer (UVICON 930, Kontron Instruments). For the semi-quantitative high-throughput competition assays, we first determined the allowed pH range for DMBT1pbs1-mediated aggregation of S. gordonii and E. coli by using TBS-TC adjusted with either HCl or NaOH. […] For monitoring competitive effects, we preincubated 20 μl of the DMBT1pbs1 stock solution (20 μg) with 20 μl of the respective substance solutions in 48-well microtiter plates at room temperature (RT) for 2 min. As reference served 20 μl 10% (v/v) DMSO solution in H2O mixed with 20 μl of the solvents of the respective substances. Afterwards, 100 μl of S. gordonii or E. coli (resuspended in TBS-TC or TBS-T, respectively, for the calcium-free assays) solution was added simultaneously to each well using a multichannel pipette. Bacterial aggregation was compared to the reference by visual inspection over a time course of 10 min. The scoring system was: (+++) no difference in aggregation compared to reference. (++) moderate inhibition of aggregation over the entire time course or maximal aggregation delayed by 1-5-min compared to reference; (+) strong inhibition of aggregation over the entire time course or maximal aggregation delayed by 5-10 min compared to reference; (−) complete inhibition of aggregation after 10 min. Each experiment was at least done in triplicate.
Sucrose, maltose, dextrose, and the various salts tested were standard reagents obtained from Merck or Sigma. […] The following substances were obtained from Sigma with catalogue numbers in brackets: heparansulfate (H-7640), chondroitinsulfate B (C-3788), azoxymethane (A-9517), N-nitrosodiethlylamine (N-0258), streptococcus sanguis LTA (L-3765), Staphylococcus aureus LTA (L-2515), Escherichia coli LPS (L-3012), Klebsiella pneumoniae LPS (L-1770), Salmonella typhimurium LPS (L-6511), Salmonella minnesota LPS (chemotype Rd1; L-9391), L-α-phosphatidylcholine (P-279), CUROSURF™ with 80 mg/ml phospholipids from pig surfactant (54 mg/ml phosphatidylcholine and 30-5 mg/ml D-palmitoylphosphatidylcholine; overall: 99% polar phospholipids and 1% proteins) was obtained from Dey (Napa; Italy), and sIgA was purchased from Sigma. The dNTPs and the dNTP-Mix were from Roche Diagnostics. The DNA used in all experiments was the 4.7-kb plasmid pEGFP-N1 from Clontech.

[1] = biological target: T2, rDMBT1 binding to HIV-gp120 (Homo sapiens, UniProt Q9UGM3, G1295S/L1336F/T649M); experiment: Effects of DSS and dextran on rDMBT1 binding to HIV-gp120; settings: 100 μg/ml DSS or dextran; rDMBT1 2 μg/ml; gp120 1 μg/ml
T2 construct: made in house; host or cells: rDMBT1 from T-REx-CHO
Excerpt: Values are means of five independent experiments.

[2] = biological target: T3, human recombinant DMBT1 (rDMBT1) (Homo sapiens, UniProt Q9UGM3, G1295S/L1336F/T649M); experiment: Turbidometric competition assay, rDMBT1-mediated Streptococcus gordonii aggregation; format: binding; settings: 0.32% to 2.50% (w/v) DSS; 0.28% to 0.84% degraded carrageenan; rDMBT1 15 μg/ml
T3 construct: made in house; purified from culture supernatant
T3 sequence (Q9UGM3 20-2413 T649M/G1295S/L1336F): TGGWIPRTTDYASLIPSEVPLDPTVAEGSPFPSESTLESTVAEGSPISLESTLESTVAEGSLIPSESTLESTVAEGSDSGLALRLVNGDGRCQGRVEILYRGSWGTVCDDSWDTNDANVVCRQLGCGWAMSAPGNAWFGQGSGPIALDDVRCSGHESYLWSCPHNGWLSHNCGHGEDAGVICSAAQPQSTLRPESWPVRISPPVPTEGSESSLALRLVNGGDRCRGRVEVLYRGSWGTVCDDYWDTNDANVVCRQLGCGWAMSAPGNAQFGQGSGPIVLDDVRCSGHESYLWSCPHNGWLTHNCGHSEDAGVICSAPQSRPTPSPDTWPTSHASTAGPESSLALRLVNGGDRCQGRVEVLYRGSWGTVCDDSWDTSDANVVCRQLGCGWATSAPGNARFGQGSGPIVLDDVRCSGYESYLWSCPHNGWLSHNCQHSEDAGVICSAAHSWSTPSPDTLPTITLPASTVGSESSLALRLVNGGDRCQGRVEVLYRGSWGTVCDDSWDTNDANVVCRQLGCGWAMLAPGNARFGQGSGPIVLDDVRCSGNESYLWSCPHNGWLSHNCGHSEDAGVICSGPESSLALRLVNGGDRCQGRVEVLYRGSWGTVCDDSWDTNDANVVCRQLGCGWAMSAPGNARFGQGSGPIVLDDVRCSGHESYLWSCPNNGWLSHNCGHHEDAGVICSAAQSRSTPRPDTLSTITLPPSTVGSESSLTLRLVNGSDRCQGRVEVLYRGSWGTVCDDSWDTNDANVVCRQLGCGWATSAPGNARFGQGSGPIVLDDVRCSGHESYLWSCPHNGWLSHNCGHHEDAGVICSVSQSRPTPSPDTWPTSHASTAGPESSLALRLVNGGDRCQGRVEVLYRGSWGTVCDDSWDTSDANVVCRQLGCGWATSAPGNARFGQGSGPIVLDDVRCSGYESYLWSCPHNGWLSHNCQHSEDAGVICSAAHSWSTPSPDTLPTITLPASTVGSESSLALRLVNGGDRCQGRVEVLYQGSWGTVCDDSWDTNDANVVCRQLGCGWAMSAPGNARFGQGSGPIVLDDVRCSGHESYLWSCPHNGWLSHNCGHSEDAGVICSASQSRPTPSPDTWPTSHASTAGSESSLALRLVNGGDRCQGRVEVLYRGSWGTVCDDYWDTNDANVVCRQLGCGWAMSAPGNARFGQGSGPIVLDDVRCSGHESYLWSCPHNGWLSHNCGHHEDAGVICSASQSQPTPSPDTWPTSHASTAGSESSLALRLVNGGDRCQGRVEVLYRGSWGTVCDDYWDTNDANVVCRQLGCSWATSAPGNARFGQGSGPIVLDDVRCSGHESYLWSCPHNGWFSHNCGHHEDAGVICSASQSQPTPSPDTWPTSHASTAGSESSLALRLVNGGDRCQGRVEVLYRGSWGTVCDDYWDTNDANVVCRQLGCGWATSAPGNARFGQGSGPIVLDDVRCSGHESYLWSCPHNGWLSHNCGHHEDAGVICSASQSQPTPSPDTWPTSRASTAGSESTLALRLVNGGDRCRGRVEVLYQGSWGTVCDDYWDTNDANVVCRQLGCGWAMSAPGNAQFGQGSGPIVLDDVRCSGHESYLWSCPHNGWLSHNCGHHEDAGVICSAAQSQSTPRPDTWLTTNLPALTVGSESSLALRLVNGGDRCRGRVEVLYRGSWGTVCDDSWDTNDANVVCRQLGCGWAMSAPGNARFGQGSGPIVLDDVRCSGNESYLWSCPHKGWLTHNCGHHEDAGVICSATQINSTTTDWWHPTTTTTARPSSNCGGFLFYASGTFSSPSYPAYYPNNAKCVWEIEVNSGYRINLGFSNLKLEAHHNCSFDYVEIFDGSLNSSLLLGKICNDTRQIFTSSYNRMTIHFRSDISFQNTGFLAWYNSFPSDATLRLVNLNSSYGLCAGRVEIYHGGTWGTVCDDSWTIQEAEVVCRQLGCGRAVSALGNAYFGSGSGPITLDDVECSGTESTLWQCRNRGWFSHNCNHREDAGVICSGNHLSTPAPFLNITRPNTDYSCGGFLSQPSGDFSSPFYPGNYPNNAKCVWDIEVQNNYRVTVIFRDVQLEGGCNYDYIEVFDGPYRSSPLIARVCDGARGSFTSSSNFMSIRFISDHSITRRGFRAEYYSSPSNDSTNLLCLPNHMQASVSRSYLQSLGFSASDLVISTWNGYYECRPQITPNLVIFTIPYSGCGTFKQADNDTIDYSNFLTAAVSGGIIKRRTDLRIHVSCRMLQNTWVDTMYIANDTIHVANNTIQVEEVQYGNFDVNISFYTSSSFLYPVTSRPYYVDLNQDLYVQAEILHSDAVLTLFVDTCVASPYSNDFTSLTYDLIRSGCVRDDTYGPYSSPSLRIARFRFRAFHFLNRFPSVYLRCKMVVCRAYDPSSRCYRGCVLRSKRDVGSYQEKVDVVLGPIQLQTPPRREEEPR
Method: (§1) Streptococcus gordonii (strain: […]) was cultured under anaerobic conditions as described before^17, harvested by centrifugation at 3,000 g, washed twice with PBS containing 10 mM EDTA and once with PBS and finally resuspended in PBS to a final OD700 of 2.0 corresponding to about 2.0×10^9 cells/ml, respectively.
(§2) Competition assays were carried out in a final volume of 500 μl at RT. Streptococcus gordonii (250 μl in PBS) was mixed with 100 μl synthetic peptide DMBT1-SRCRP2 diluted 1:1 in PBS (final concentration in the assay: 100 μg/ml) or 100 μl purified rDMBT1 in PBS (final concentration in the assay: 15 μg/ml) and 150 μl of the respective competitor stock solutions, so that the final concentrations ranged from 0.32% to 2.50% (w/v) DSS and 0.28% to 0.84% […] degraded carrageenan. Samples with 0.0% competitor served as controls. The samples were placed in a spectrophotometer (Anthelie; SECOMAN, France) and the OD700-value was measured in intervals of 3 minutes. Each experiment was at least done in triplicate. For the DSS competition studies, we used the same DSS as in the animal experiments (Mr=36-50 kDa; ICN Biomedicals Aurora). High molecular weight lambda carrageenan was obtained from Sigma (Taufkirchen; Germany). […]

DMBT1-SRCRP2 = biological target: T4, DMBT1-SRCRP2 (Homo sapiens, UniProt Q9UGM3); experiment: Turbidometric competition assay, DMBT1-SRCRP2-mediated bacterial aggregation; format: binding; settings: 0.32% to 2.50% (w/v) DSS; 0.28% to 0.84% degraded carrageenan; peptide 100 μg/ml
T4 construct: purity >85%); purchased Eurogentec (Belgium); host or cells: chemical synthesis
Method: as §1, §2

human rDMBT1 = biological target: T5, human rDMBT1 (Homo sapiens, UniProt Q9UGM3, G1295S/L1336F/T649M); experiment: Binding of human rDMBT1 to immobilized DSS and degraded lambda carrageenan; settings: rDMBT1 10 μg/ml; immobilized substance
T5 construct: made in house; purified from culture supernatant
T5 sequence (Q9UGM3 20-2413 T649M/G1295S/L1336F): as above
Method: DSS was serially diluted in coating buffer (100 mM carbonate buffer, pH 9.6) to obtain final concentrations of 2.5% to 0.02% (w/v). One hundred μl of the samples were applied onto ELISA plates (Microlon, F-Form; Greiner, Germany) and coating was done at 4° C. for 16 h. Acid hydrolyzed and pH-adjusted lambda carrageenan was serially diluted with the solvent (approximately 50 mM HCl and 50 mM NaOH) to obtain concentrations ranging from 2.8% to 0.0055% […] and coating of ELISA plates was done at 37° C. for 2 h. After coating and three washes with TBS containing 0.1% (v/v) Tween 20 (TBS-T), rDMBT1 (10 μg/ml in TBS-T) was added to each well and incubated at 37° C. for 1 h. The wells were then washed five times with 200 μl TBS-T, incubated at 37° C. for 1 h with the DMBT1-specific mouse monoclonal antibody anti(A2) gp-340 (Hyb213-06; Antibody-Shop; dilution 1:10,000 in TBS-T), washed again five-times with TBS-T, and incubated at 37° C. for 1 h with a rabbit anti-mouse IgG-HRP conjugate (Jackson; dilution 1:10,000 in TBS-T). Subsequent to five washes with TBS-T, 150 μl substrate (125 μg/ml 3,3′,5′-Tetramethyl-benzidine; in 0.1 M citrate buffer pH 4.5 with 0.05% (v/v) H2O2) were added, and after incubation at RT for 10-15 min the reaction was stopped by addition of […] 2 M HCl. The intensity of the dye reaction was measured at 450 nm in an ELISA reader (EL800; Bio-Tec Instruments Inc.). […]

DMBT1 = biological target: T6, DMBT1 (Homo sapiens, UniProt Q9UGM3); experiment: Binding of DMBT1/rDMBT1 to immobilized candidate substances (ELISA); settings: substance immobilized; DMBT1 or rDMBT1 10 μg/ml
T6 construct: was obtained from parotid saliva of healthy volunteer donors collected with Lashley cups; from tissue; host or cells: parotid saliva of healthy volunteer donors, purified to about 95% homogeneity
Method: For the peptide binding studies we used, unless otherwise indicated, 20 μg/ml peptide in a total volume of 100 μl (dilution in coating buffer, 100 mM carbonate buffer, pH 9.6) for the coating of high affinity ELISA plates (Microlon, Fluotrac 600; Greiner). When immobilizing rDMBT1, purified, partially purified DMBT1 or substances to be tested, we applied serial dilutions in coating buffer onto the plates. Coating was done at 4° C. for 16 h and was followed by three washes with PBS-T with 1 mM CaCl2 (PBS-TC). For the analysis of bacterial binding to immobilized peptides or protein, we incubated the wells with 100 μl bacterial solution at 37° C. for 2 h. After removal of unbound bacteria, 100 μl of SYTO-9 solution (Molecular Probes), which is a cell-permeable fluorescent DNA dye, was added, plates were incubated in the dark for 15 min and after three washes with PBS-TC, fluorescence was measured by determination of the emission at 535 nm with a microtiter plate reader (488 n=excitation; Fluostar Galaxy, BMG Laboratories). DNA binding to immobilized DMBT1 was analyzed by using the same plasmid (LPS-free preparation) as used for the competitive aggregation and transfection assays (see below). Bound DNA was detected analogous to detection of bacteria except for using SYTQ-13 as dye. […]

“Dextran sulfate sodium [Dextran sulfate sodium (DSS)]” was tested, and the “Aggregation of E. coli” value (DMBT1pbs1; substance 10-50 mg/ml) was “−”, the “Aggregation of S. gordonii” value (DMBT1pbs1; substance 10-50 mg/ml) was “−” and the “inhibition of rDMBT1 binding to immobilized HIV-gp120” value [1] was “exerted an inhibitory effect”. For the same substance, the “Inhibitory effects on rDMBT1-mediated Streptococcus gordonii aggregation” value [2] was “Inhibitory effects”, the “Inhibitory effects on bacterial aggregation mediated by DMBT1-SRCRP2” value (DMBT1-SRCRP2) was “Inhibitory effects” and the “direct interaction with human DMBT1 (competition and binding studies in vitro)” value (human rDMBT1) was “directly interacted”.
With Degraded lambda-carrageenan the “Aggregation of E. coli” value (DMBT1pbs1; substance 0.05 mg/ml) was “+++”, the “Aggregation of S. gordonii” value (DMBT1pbs1; substance 0.05 mg/ml) was “++” and the “Aggregation of S. gordonii” value (DMBT1pbs1; substance 0.1 mg/ml) was “+”. For the same substance, the “Inhibitory effects on rDMBT1-mediated Streptococcus gordonii aggregation” value [2] was “Inhibitory effects”, the “Inhibitory effects on bacterial aggregation mediated by DMBT1-SRCRP2” value (DMBT1-SRCRP2) was “Inhibitory effects” and the “direct interaction with human DMBT1 (competition and binding studies in vitro)” value (human rDMBT1) was “directly interacted”.
With lipoteichoic acid [LTA] the “binding to DMBT1” value (DMBT1) was “showed binding to DMBT1”.
In the case of lipopolysaccharide [LPS], the “binding to DMBT1” value (DMBT1) is reported as “showed binding to DMBT1”.
